Here are results for 6 compounds from PubChem BioAssay (NCI).

What all share (assay): NCI-60 cell line screen, 48 h
The subject of experiment [1] is MDA-MB-231 breast.
Experiment [2] concerns T-47D breast.
Experiment [3] has as its system DU-145 prostate.
The subject of experiment [4] is UO-31 renal.
Experiment [5] relates to NCI/ADR-RES ovarian.
Experiment [6] concerns OVCAR-5 ovarian.
Experiment [7] relates to HT29 colon.
The test system of experiment [8] is HOP-62 NSCLC.
Experiment [9] has as its system TK-10 renal.
Experiment [10] relates to NCI-H522 lung.
In experiment [11] the test system is RPMI-8226 leukemia.
Experiment [12] deals with SF-539 CNS.
The subject of experiment [13] is MALME-3M melanoma.
The subject of experiment [14] is HOP-92 NSCLC.
Experiment [15] concerns IGROV1 ovarian.
Experiment [16] concerns NCI-H460 lung.
Experiment [17] concerns SK-OV-3 ovarian.
Experiment [18] has as its system HCT-116 colon.
Experiment [19] relates to SNB-78 CNS.
Experiment [20] deals with LXFL 529 NSCLC.

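Following 48 hours of exposure in 96-well plates, responses at five concentrations were used to interpolate endpoints linearly. At the TGI there is no net growth.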

Turning to `COC(=O)/C=C\Sc1ccn(/C=C\C(=O)OC)c(=S)n1`, the TGI in experiment [1] is 56.7 µM; in experiment [2] it was 46.1 µM; in experiment [3], more than 100 µM; in experiment [4], 50.5 µM; in experiment [5], 40.7 µM; in experiment [6] it was more than 100 µM. Further, the TGI in experiment [7] was 52.9 µM; in experiment [8], 32.4 µM; in experiment [9], 51.1 µM; in experiment [10], 31.4 µM; in experiment [11], more than 100 µM; in experiment [12] it was 36.9 µM. Besides, the TGI was found to be 53.9 µM in experiment [13], 47.7 µM in [14] and 35.2 µM in experiment [15].

On to `O=C(CCCn1cnc([N+](=O)[O-])n1)NCCn1ccnc1[N+](=O)[O-]`, for which the TGI in experiment [2], in experiment [3], in experiment [4], in experiment [6], in experiment [7] and in experiment [8] was more than 100 µM in each case. Further, the TGI in experiment [9], in experiment [16], in experiment [10], in [11], in experiment [14] and in [15] was more than 100 µM each time. The TGI in [17] is more than 100 µM.

Take `CC(=O)OC(Cc1cc(C=C(C(F)(F)F)C(F)(F)F)cc(C)n1)(C(F)(F)F)C(F)(F)F`: the TGI in experiment [1] is 4.65 µM; in experiment [18], 2.91 µM; in experiment [2], 6.88 µM; in experiment [3], 6.84 µM; in [4], 3.08 µM; in [5], more than 100 µM. Moreover, the TGI in [6] came out at 4.58 µM; in experiment [7] it was 5.32 µM; in [8], 3.42 µM; in experiment [9] it was 6.7 µM; in experiment [16], 5.09 µM; in experiment [11], 4.56 µM. Moreover, the TGI in experiment [12] is 5.27 µM; in experiment [13], more than 20.8 µM; in [14], 2.32 µM; in experiment [15] it was 1.58 µM; in experiment [17], more than 51.9 µM.

As for `CC1(C)OP23(NC(=O)OC2(C(F)(F)F)c2ccccc2O3)OC1(C)C` (centres undefined), the TGI in [18], in experiment [4], in experiment [19], in [7], in experiment [20] and in experiment [9] was more than 100 µM in each case. The TGI in [16], in experiment [10], in [12], in experiment [13] and in experiment [17] was more than 100 µM throughout.

Take `COc1ccc2[nH]c(C(=O)N3CC(CCl)c4ccc(N)cc43)cc2c1` (centres undefined): the TGI is 0.545 µM in [1]; more than 100 µM in experiment [2]; 2.28 µM in [5]; more than 30.1 µM in [6]; 0.508 µM in experiment [7]; more than 100 µM in experiment [8]. In addition, the TGI is more than 100 µM in experiment [9]; 3.24 µM in [16]; 0.0882 µM in [10]; more than 35.4 µM in [11]; 1.7 µM in experiment [12]; 0.302 µM in [13]. Further, the TGI in experiment [14] and in [17] was more than 100 µM in each case.

With `CN(C)c1ccc(N2C(=S)SC(=Nc3ccccc3)C2=Nc2ccccc2)cc1`, the TGI in experiment [1], in experiment [18], in experiment [2], in [3], in experiment [4] and in [5] was more than 100 µM in each case. Further, the TGI in [6], in experiment [8], in experiment [16], in experiment [10], in experiment [11] and in experiment [13] was more than 100 µM each time. Moreover, the TGI in experiment [15] and in experiment [17] was more than 100 µM each time.
